Measured values taken from PubChem BioAssay (NCI).
“And” between values parts separate entries of the source, which are not always exact repeats. Identical values can stand only once.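 A five-concentration, 48-hour dose response in 96-well plates underlies each endpoint, interpolated linearly between surrounding concentrations. At the GI50, growth is halved. The concentration for full growth arrest is given as TGI.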 *1 amine or outer side, *2 acyl side, *3 side chain or, on linkers, in order; H or OH if unused. Where a SMILES comes first, the peptide text is derived from it. Bridges are numbered along the chain shown (N, C = ends). Roman numbers before positions name the chains, in order. [ ]: non-standard residue; d: D form. Actinocin(9to1) = Cc1c2oc3c(C)ccc(C(=O)[*:1])c3nc-2c(C(=O)[*:2])c(N)c1=O; NMeT = CN[CH](C(=O)O)[CH](C)O; Sar = CNCC(=O)O

Key:
Experiment in all cases: DTP human tumour cell line panel, 48 h
[1] = test system: OVCAR-3 ovarian
[2] = test system: MCF7 breast
[3] = test system: EKVX NSCLC
[4] = test system: U251 CNS
[5] = test system: SNB-75 CNS
[6] = test system: HCT-15 colon
[7] = test system: SF-539 CNS
[8] = test system: CAKI-1 renal
[9] = test system: K-562 leukemia
[10] = test system: UACC-62 melanoma

Compound | GI50 [1] | TGI [1] | TGI [2] | GI50 [3] | TGI [3] | TGI [4] | TGI [5] | GI50 [6] | TGI [6] | TGI [7] | GI50 [8] | TGI [8] | TGI [9] | TGI [10] | GI50 [2] | GI50 [4] | GI50 [5] | GI50 [7] | GI50 [9] | GI50 [10]
Cc1c2oc3c(C)ccc(C(=O)NC4C(=O)NC(C(C)C)C(=O)N5CCCC5C(=O)N(C)CC(=O)N(C)C(C(C)O)C(=O)OC4C)c3nc-2c(C(=O)NC2C(=O)NC(C(C)C)C(=O)N3CCCC3C(=O)N(C)CC(=O)N(C)C(C(C)O)C(=O)OC2C)c(N)c1=O (centres undefined) (I: TVP[Sar][NMeT] / II: TVP[Sar][NMeT]; ester I:1-I:C, II:1-II:C; linker I:N-II:N via Actinocin(9to1); configuration not given here) | 2.23 µM and > 1 µM | 16.6 µM and > 1 µM | > 1 µM | 2.56 µM and > 1 µM | 25 µM and > 1 µM | 7.27 µM and > 1 µM | 3.43 µM and 0.839 µM | 14.1 µM and > 1 µM | > 100 µM | 18 µM and > 1 µM | 3.64 µM and > 1 µM | 13.1 µM and > 1 µM | > 36.5 µM | 1.54 µM | – | – | – | – | – | –
CCN(Cc1ccccc1)c1ccc(CO)c(Cl)c1 | 0.658 µM | 3.62 µM | 25.9 µM | 20.1 µM | 74.5 µM | 50.1 µM | 69.7 µM | 13.8 µM | > 100 µM | > 100 µM | 0.845 µM | 21.4 µM | > 100 µM | 0.695 µM | 0.338 µM | 1 µM | 13.6 µM | 30.2 µM | 2.69 µM | 0.104 µM
COc1ccc(-c2cc(-c3cccn3C)c(C#N)c(=O)[nH]2)cc1OC | > 100 µM | > 100 µM | > 100 µM | 30.7 µM | > 100 µM | > 100 µM | > 100 µM | > 100 µM | > 100 µM | > 100 µM | > 100 µM | > 100 µM | > 100 µM | > 100 µM | > 100 µM | > 100 µM | 24.2 µM | 66.8 µM | > 100 µM | 65.5 µM
CC1=C(C(=O)Nc2ccc(Cl)c(Cl)c2)C(c2cccc(Cl)c2)NC(=O)N1 (centres undefined) | 0.838 µM | 9.13 µM | 13.5 µM | 7.84 µM | 16.2 µM | 17 µM | 28.7 µM | 9.06 µM | 19.2 µM | 13.2 µM | 9.42 µM | 19.9 µM | 48.4 µM | 12.3 µM | 2.11 µM | 8.32 µM | 9.67 µM | 6.48 µM | 13.6 µM | 5.9 µM
CCC(=O)Nc1ccccc1C#C/C=C\C#Cc1ccccc1SC | 8.87 µM | 80.6 µM | 29.7 µM | 7.11 µM | 78.5 µM | > 100 µM | > 100 µM | 4.27 µM | > 100 µM | > 100 µM | 5.18 µM | > 100 µM | > 100 µM | > 100 µM | 3.39 µM | 6.43 µM | 4.76 µM | 14.2 µM | 6.37 µM | 4.04 µM
CC(=Nc1ccccc1)C1=C(O)C(Cc2ccc(O)cc2)NC1=O (centres undefined) | 0.0258 µM | 0.072 µM | > 100 µM | 0.16 µM | > 100 µM | – | 0.566 µM | 0.0585 µM | > 46.8 µM | 0.703 µM | 0.0635 µM | > 100 µM | > 50.7 µM | > 100 µM | 0.0391 µM | 0.0609 µM | 0.07 µM | 0.129 µM | 0.044 µM | 0.058 µM
CCOC(=O)NC1C2CC(=O)OC(O2)C1OC(C)=O (centres undefined) | – | > 100 µM | > 100 µM | – | > 100 µM | > 100 µM | > 100 µM | – | > 100 µM | > 100 µM | – | > 100 µM | > 100 µM | > 100 µM | > 100 µM | – | – | – | – | –
C=C1C(=O)O[C@H]2[C@H]1CC/C(COC(=O)C(=O)c1cn(C)c3ccc(Cl)cc13)=C\CC[C@@]1(C)O[C@@H]21 | 0.315 µM | 1.03 µM | 3.19 µM | 1.92 µM | 4.29 µM | 3.38 µM | 3.8 µM | 0.209 µM | 0.5 µM | 3.36 µM | 1.71 µM | 4.54 µM | > 100 µM | 2.08 µM | 0.391 µM | 1.79 µM | 1.61 µM | 1.66 µM | 1.65 µM | 0.356 µM
c1ccc2c(NCCCCCCNc3c4ccccc4nc4ccccc34)c3ccccc3nc2c1 | – | 2.21 µM | 2.07 µM | – | 5.69 µM | 2.59 µM | 2.29 µM | – | 16.7 µM | 0.835 µM | – | 7.87 µM | > 100 µM | 2.08 µM | – | – | – | – | – | –
O=C(O)c1ccc(Oc2nccc(-c3c(-c4ccc(F)cc4)ncn3C3CCNCC3)n2)cc1 | > 25 µM | > 25 µM | > 25 µM | > 25 µM | > 25 µM | > 25 µM | > 25 µM | > 25 µM | > 25 µM | > 25 µM | > 25 µM | > 25 µM | > 25 µM | > 25 µM | > 25 µM | > 25 µM | > 25 µM | > 25 µM | > 25 µM | > 25 µM
O=c1cc(N2CCN(CCCCCOc3cc(O)c4c(=O)cc(-c5ccccc5)oc4c3)CC2)c2ccccc2o1 | > 100 µM | > 100 µM | > 100 µM | > 100 µM | > 100 µM | > 100 µM | > 100 µM | > 100 µM | > 100 µM | > 100 µM | > 100 µM | > 100 µM | > 100 µM | > 100 µM | 83.1 µM | > 100 µM | > 100 µM | 35.6 µM | 15.4 µM | 36.2 µM
